From ChEMBL document CHEMBL5608163, “Structure modification of anoplin for fighting resistant bacteria” (Eur J Med Chem, 2024) come the findings set out here.

In data set [1] the test system is Escherichia coli. Kind of data set: Antibacterial activity against Escherichia coli assessed as reduction in bacterial growth incubated for 20 hrs by broth microdilution assay. Format: functional. On the technique in general: In broth dilution the organism is exposed to a series of concentrations in liquid medium.
The nature of data set [2]: Hemolytic activity against Red blood cells (unknown origin) incubated for 1 hr by spectrophotometric analysis. Format: toxicity, cell-based, Erythrocyte.
In data set [3] the test system is Staphylococcus aureus. Kind of data set: Antibacterial activity against Staphylococcus aureus assessed as bacterial growth inhibition incubated for 20 hrs by broth microdilution assay. Format: functional.
Data set [4] has as its system Pseudomonas aeruginosa. The data set is described as follows: Antibacterial activity against Pseudomonas aeruginosa assessed as reduction in bacterial growth incubated for 20 hrs by broth microdilution assay. The class given is functional.
The subject of data set [5] is Bacillus subtilis. The data set is described as follows: Antibacterial activity against Bacillus subtilis assessed as reduction in bacterial growth incubated for 20 hrs by broth microdilution assay. The class given is functional.
Data set [6] has as its system Escherichia coli. Kind of data set: Antibacterial activity against Escherichia coli ATCC 25922 assessed as bacterial growth inhibition incubate for 18 to 20 hrs by MH broth based assay. Format: functional. As to conditions: time 18-20 hrs.
For a further data set, the system named is Enterococcus faecium. The data set is described as follows: Antimicrobial activity against Enterococcus faecium assessed as reduction in microbial growth incubated for 18 to 20 hrs by Mueller-Hinton broth based microdilution method. The settings on record: time 18-20 hrs. Format: functional.
For data set [7], the system named is Staphylococcus aureus. Kind of data set: Antimicrobial activity against Staphylococcus aureus ATCC 25923 assessed as reduction in microbial growth incubated for 18 to 20 hrs by Mueller-Hinton broth based microdilution method. Format: functional. The settings on record: time 18-20 hrs.
The nature of data set [8]: Hemolytic activity in mouse RBC incubated for 1 hr. Format: toxicity, cell-based, Erythrocyte. The settings on record: red blood cells.
The nature of data set [9]: Hemolytic activity in human RBC. As to conditions: red blood cells. The class given is toxicity, cell-based, Erythrocyte.
A short description of data set [10]: Hemolytic activity in human erythrocyte incubated for 1 hr. Format: toxicity, cell-based. The settings on record: erythrocytes.
For data set [11], the system named is Escherichia coli. Kind of data set: Antibacterial activity against Escherichia coli ATCC 25922 assessed as reduction in bacterial growth incubated for 48 hrs by Mueller-Hinton broth based microdilution method. Format: functional.
Data set [12] has as its system Staphylococcus aureus. The data set is described as follows: Antibacterial activity against Staphylococcus aureus ATCC 25923 assessed as reduction in bacterial growth incubated for 48 hrs by Mueller-Hinton broth based microdilution method. Format: functional.
A short description of data set [13]: Hemolytic activity in human erythrocytes. Format: toxicity, cell-based, Erythrocyte.
Data set [14] relates to Bacillus subtilis. The data set is described as follows: Antibacterial activity against Bacillus subtilis assessed as reduction in bacterial growth. Format: functional.
The test system of data set [15] is Mycolicibacterium smegmatis. Kind of data set: Antimycobacterial activity against Mycobacterium smegmatis mc2 155 assessed as reduction in bacterial cell growth incubated for 48 hrs by resazurin dye based assay. The class given is functional.
Data set [16] relates to Escherichia coli. The data set is described as follows: Antibacterial activity against Escherichia coli DH5a assessed as reduction in bacterial growth. The class given is functional.
In data set [17] the test system is Pseudomonas aeruginosa. The data set is described as follows: Antibacterial activity against Pseudomonas aeruginosa PAO1 assessed as reduction in bacterial growth. The class given is functional.
A further data set has as its system Zymomonas mobilis. The data set is described as follows: Antibacterial activity against Zymomonas mobilis ATCC 10988 assessed as reduction in bacterial growth. Format: functional.

Converted amounts (≈) assume the structure as drawn. Square brackets hold non-standard residues; d marks the D form. Peptide text beside a SMILES is read from it. * marks the point of attachment. Heptadecanoyl = CCCCCCCCCCCCCCCCC(=O)*; hIle = CC[C@H](C)C[C@H](N)C(=O)O; Cha = N[C@@H](CC1CCCCC1)C(=O)O; Nonanoyl = CCCCCCCCC(=O)*

For `CC[C@H](C)[C@H](NC(=O)[C@H](CCCCN)NC(=O)[C@H](CCCCN)NC(=O)[C@H](C)NC(=O)[C@H](CC(C)C)NC(=O)[C@H](C)NC(=O)[C@H](C)NC(=O)[C@H](CC(C)C)NC(=O)[C@H](C)NC(=O)[C@H](CCCCN)NC(=O)[C@H](CC(C)C)NC(=O)[C@H](CC(N)=O)NC(=O)[C@@H](NC(=O)[C@@H]1CCCN1C(=O)[C@H](CC(C)C)NC(=O)[C@H](CC(C)C)NC(=O)[C@@H](NC(=O)[C@H](CCCCN)NC(=O)[C@@H](NC(=O)[C@H](CCCNC(=N)N)NC(=O)[C@H](CCCCN)NC(=O)[C@H](CC(C)C)NC(=O)[C@H](CC(C)C)NC(=O)CN)[C@@H](C)CC)[C@@H](C)O)[C@@H](C)CC)C(=O)N[C@@H](CC(C)C)C(N)=O` (H-GLLKRIKTLLPINLKALAALAKKIL-NH2), the MIC in the data set on Escherichia coli [1] stood at 2 µM (≈ 5.43 µg/mL); in the data set on Staphylococcus aureus [3] it was 4 µM (≈ 10.9 µg/mL); in the data set on Pseudomonas aeruginosa [4], 2 µM (≈ 5.43 µg/mL); with Bacillus subtilis [5], 2 µM (≈ 5.43 µg/mL). The compound also gave an HC50 at 1 h in data set [2] of 83.8 µM.
Turning to `CC[C@H](C)C[C@H](NC(=O)[C@H](CCCNC(=N)N)NC(=O)[C@H](CCCCN)NC(=O)[C@H](CC(C)C)NC(=O)[C@H](CC1CCCCC1)NC(=O)CN)C(=O)N[C@@H](CCCCN)C(=O)N[C@H](C(=O)N[C@@H](CC(C)C)C(=O)N[C@@H](CC1CCCCC1)C(N)=O)[C@@H](C)O` (H-G[Cha]LKR[hIle]KTL[Cha]-NH2), the MIC worked out at 6.25 µM (≈ 7.8 µg/mL) with Escherichia coli [6], 3.2 µM in the data set on Enterococcus faecium and 5.3 µM with Staphylococcus aureus [7]. In [8], this compound showed an HC50 at 1 h of 31.2 µM. In data set [9], this compound registered an HC50 of 31.2 µM.
The compound `CCCCCCCCCCCCCCCCC(=O)NCC(=O)N[C@@H](CC(C)C)C(=O)N[C@@H](CC(C)C)C(=O)N[C@@H](CCCCN)C(=O)N[C@@H](CCCNC(=N)N)C(N)=O` (Heptadecanoyl-GLLKR-NH2) came in with an HC50 at 1 h in [10] of 80.2 µM. Further, the results for the MIC with Escherichia coli [11] and with Staphylococcus aureus [12] were 7.88 µM (≈ 6.6 µg/mL) and 3.94 µM (≈ 3.3 µg/mL), respectively.
Compound `CCCCCCCCCCCCCCCCC(=O)NCC(=O)N[C@@H](CC(C)C)C(=O)N[C@@H](CC(C)C)C(=O)N[C@@H](CCCCN)C(=O)N[C@@H](CCCNC(=N)N)C(=O)N[C@H](C(N)=O)[C@@H](C)CC` (Heptadecanoyl-GLLKRI-NH2) showed an HC50 at 1 h in data set [10] of 8.01 µM. The MIC in the data set on Escherichia coli [11] was 3.47 µM (≈ 3.3 µg/mL); in the data set on Staphylococcus aureus [12], 0.66 µM (≈ 0.627 µg/mL).
In the case of `CCCCCCCCCCCCCCCCC(=O)NCC(=O)N[C@@H](CC(C)C)C(=O)N[C@@H](CC(C)C)C(=O)N[C@@H](CCCCN)C(=O)N[C@@H](CCCNC(=N)N)C(=O)N[C@H](C(=O)N[C@@H](CCCCN)C(N)=O)[C@@H](C)CC` (Heptadecanoyl-GLLKRIK-NH2), the HC50 at 1 h in data set [10] stood at 35.4 µM. The minimal inhibitory concentration (MIC) in the data set on Escherichia coli [11] amounted to 1.53 µM (≈ 1.65 µg/mL); in the data set on Staphylococcus aureus [12], 0.76 µM (≈ 0.82 µg/mL).
The compound `CCCCCCCCCCCCCCCCC(=O)NCC(=O)N[C@@H](CC(C)C)C(=O)N[C@@H](CC(C)C)C(=O)N[C@@H](CCCCN)C(=O)N[C@@H](CCCNC(=N)N)C(=O)N[C@H](C(=O)N[C@@H](CCCCN)C(=O)N[C@H](C(N)=O)[C@@H](C)O)[C@@H](C)CC` (Heptadecanoyl-GLLKRIKT-NH2) displayed an HC50 at 1 h in data set [10] of 29 µM. Further, the results for the MIC in the data set on Escherichia coli [11] and in the data set with Staphylococcus aureus [12] were 2.8 µM (≈ 3.3 µg/mL) and 1.4 µM (≈ 1.65 µg/mL), respectively.
For the compound `CCCCCCCCCCCCCCCCC(=O)NCC(=O)N[C@@H](CC(C)C)C(=O)N[C@@H](CC(C)C)C(=O)N[C@@H](CCCCN)C(=O)N[C@@H](CCCNC(=N)N)C(=O)N[C@H](C(=O)N[C@@H](CCCCN)C(=O)N[C@H](C(=O)N[C@@H](CC(C)C)C(=O)N[C@@H](CC(C)C)C(=O)O)[C@@H](C)O)[C@@H](C)CC` (Heptadecanoyl-GLLKRIKTLL-OH), in data set [10], the HC50 at 1 h stood at 14.8 µM. The MIC in the data set with Escherichia coli [11] and in the data set with Staphylococcus aureus [12] was 0.32 µM (≈ 0.45 µg/mL) in each case.
The compound `CCCCCCCCC(=O)NCC(=O)N[C@@H](CC(C)C)C(=O)N[C@@H](CC(C)C)C(=O)N[C@@H](CCCCN)C(=O)N[C@@H](Cc1ccccc1)C(=O)N[C@H](C(=O)N[C@@H](CCCCN)C(=O)N[C@@H](CCCCN)C(=O)N[C@@H](CC(C)C)C(=O)N[C@@H](CC(C)C)C(N)=O)[C@@H](C)CC` (Nonanoyl-GLLKFIKKLL-NH2) came in with an HC50 in data set [13] of less than 386 µM. The MIC worked out at 8 µM (≈ 10.5 µg/mL) with Bacillus subtilis [14]; 3.86 µM (≈ 5.06 µg/mL) in data set [15]; 23.1 µM (≈ 30.3 µg/mL) in the data set with Escherichia coli [16]; 3.86 µM (≈ 5.06 µg/mL) in the data set with Pseudomonas aeruginosa [17]; 3.86 µM (≈ 5.06 µg/mL) in the data set on Zymomonas mobilis.

As usually defined, the MIC is the lowest concentration that inhibits growth of the organism. By HC50 is commonly meant the concentration giving 50% haemolysis. A lower HC50 goes with stronger haemolysis.
